Laboratory results as given in the NIST ThermoML archive (doi:10.1021/je0500431).

Assay: xn = mol fraction of the nth substance listed
Conditions: Ring tensiometer

OCc1ccccc1 [benzenemethanol] + CC(C)O
surface tension liquid-gas [mN/m]
Conditions	x2 = 0	x2 = 0.0029	x2 = 0.005	x2 = 0.0076	x2 = 0.0117	x2 = 0.0207	x2 = 0.0329	x2 = 0.0494
293.15 K	39.05	37.69	37.53	37.21	36.95	36.79	36.56	36.06
298.15 K	38.58	37.3	37.09	36.8	36.53	36.37	36.15	35.53
303.15 K	38.12	36.95	36.68	36.43	36.13	35.97	35.78	35.09
308.15 K	37.63	36.62	36.32	36.05	35.75	35.55	35.41	34.61
313.15 K	37.16	36.29	35.92	35.68	35.39	35.14	35.04	34.11
318.15 K	36.63	35.89	35.48	35.27	35.04	34.73	34.62	33.63
323.15 K	36.18	35.55	35.04	34.92	34.64	34.29	34.22	33.22

OCc1ccccc1 [benzenemethanol] + CCC(C)O
surface tension liquid-gas [mN/m]
Conditions	x2 = 0	x2 = 0.0026	x2 = 0.0056	x2 = 0.0078	x2 = 0.0107	x2 = 0.0246	x2 = 0.0366	x2 = 0.0512
293.15 K	39.05	37.5	37.14	36.95	36.4	36.07	35.65	35.32
298.15 K	38.58	37.08	36.75	36.52	36.05	35.64	35.25	34.88
303.15 K	38.12	36.63	36.31	36.12	35.72	35.18	34.83	34.4
308.15 K	37.63	36.2	35.97	35.71	35.39	34.77	34.46	34
313.15 K	37.16	35.75	35.55	35.31	35.03	34.37	34.03	33.54
318.15 K	36.63	35.35	35.17	34.9	34.67	33.95	33.62	33.07
323.15 K	36.18	34.95	34.8	34.49	34.34	33.5	33.24	32.7

OCc1ccccc1 [benzenemethanol] + CCCC(C)O
surface tension liquid-gas [mN/m]
Conditions	x2 = 0	x2 = 0.0026	x2 = 0.0055	x2 = 0.0093	x2 = 0.0129	x2 = 0.0238	x2 = 0.0344	x2 = 0.0542
293.15 K	39.05	36.98	36.71	36.43	35.99	35.72	35.49	35.08
298.15 K	38.58	36.48	36.22	35.95	35.54	35.32	35.08	34.61
303.15 K	38.12	35.95	35.7	35.53	35.15	34.9	34.71	34.1
308.15 K	37.63	35.46	35.18	35	34.73	34.49	34.32	33.61
313.15 K	37.16	34.97	34.73	34.54	34.33	34.05	33.93	33.1
318.15 K	36.63	34.44	34.18	34.07	33.91	33.63	33.49	32.69
323.15 K	36.18	33.91	33.65	33.56	33.55	33.28	33.11	32.19

OCc1ccccc1 [benzenemethanol] + CCCCCO
surface tension liquid-gas [mN/m]
Conditions	x2 = 0	x2 = 0.0037	x2 = 0.0052	x2 = 0.0083	x2 = 0.0117	x2 = 0.0213	x2 = 0.0336	x2 = 0.0536
293.15 K	39.05	36.88	36.73	36.56	36.35	35.93	35.63	35.22
298.15 K	38.58	36.41	36.34	36.12	35.93	35.5	35.21	34.76
303.15 K	38.12	36.05	35.92	35.73	35.5	35.05	34.79	34.31
308.15 K	37.63	35.64	35.51	35.28	35.1	34.64	34.35	33.8
313.15 K	37.16	35.26	35.1	34.86	34.69	34.24	33.95	33.34
318.15 K	36.63	34.86	34.7	34.47	34.29	33.82	33.52	32.95
323.15 K	36.18	34.47	34.31	34.03	33.89	33.4	33.08	32.43
